The results in this text go back to PMC4111509 (PLoS ONE, 2014).

Assay in all cases: HPLC-UV product detection
Type in all cases: biochemical
Common to all, as to conditions: AdoMet co-substrate

One experiment deals with T1, NpN4OMT2 (Narcissus aff. pseudonarcissus MK-2014, UniProt A0A077EW86).
T1 construct: gene N4OMT2; full length, N-terminal His tag (pET28a), E. coli, purified

Another experiment has as its target T2, NpN4OMT4 (Narcissus aff. pseudonarcissus MK-2014, UniProt A0A077ES70).
T2 construct: gene N4OMT4; full length, N-terminal His tag (pET28a), E. coli, purified

For a further experiment, the target named is T3, NpN4OMT5 (Narcissus aff. pseudonarcissus MK-2014, UniProt A0A077ESS0).
T3 construct: gene N4OMT5; full length, N-terminal His tag (pET28a), E. coli, purified
T3 sequence (A0A077ESS0 whole entry): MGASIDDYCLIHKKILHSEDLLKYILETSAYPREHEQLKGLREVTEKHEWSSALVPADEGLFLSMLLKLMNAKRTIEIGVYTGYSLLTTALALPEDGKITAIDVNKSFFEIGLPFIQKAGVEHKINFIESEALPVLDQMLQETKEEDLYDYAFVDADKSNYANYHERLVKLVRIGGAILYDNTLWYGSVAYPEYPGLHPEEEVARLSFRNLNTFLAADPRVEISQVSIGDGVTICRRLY

T2 sequence (A0A077ES70 whole entry): as the sequence (A0A077ESS0 whole entry) above, with L67I counted along it
T1 sequence (A0A077EW86 whole entry): as the sequence (A0A077ESS0 whole entry) above, with C9S, I11V, K14N counted along it

For `Oc1ccc(CCNCc2ccc(O)c(O)c2)cc1` [norbelladine], the HPLC-UV product detection result at NpN4OMT2, at NpN4OMT4 and at NpN4OMT5 was “enzymatic activity was confirmed for all variants using norbelladine as the substrate” each time.
